Test results as given in publication PMC4303209, “A novel phosphatidylinositol 3-kinase (PI3K) inhibitor directs a potent FOXO-dependent, p53-independent cell cycle arrest phenotype characterized by the differential induction of a subset of FOXO-regulated genes” (Breast Cancer Research : BCR, 2014).

Tested on: MCF-7 breast cancer cells
Assay: Microarray gene expression analysis (Agilent whole human genome 4 x 44K; compound vs DMSO, LIMMA log2 fold change)
Assay type: cell-based
Details: cell cycle genes

SMILES: Cn1ncc2c(N3CCOCC3)nc(-c3cccc(O)c3)nc21 [ETP-45658]
- TRIAP1 log2FC (Gene 51499): -0.820
- DTL log2FC (Gene 51514): 0.044
- SIRT7 log2FC (Gene 51547): 0.404
- CINP log2FC (Gene 51550): -0.074
- GINS2 log2FC (Gene 51659): -0.721
- NUP54 log2FC (Gene 53371): 0.683
- PELO log2FC (Gene 53918): -0.595
- WNT4 log2FC (Gene 54361): -0.709
- ANLN log2FC (Gene 54443): 0.699
- FBXW5 log2FC (Gene 54461): -0.054
- FAM64A log2FC (Gene 54478): 0.090
- DDX4 log2FC (Gene 54514): -0.146
- BTG4 log2FC (Gene 54766): 0.249
- NDE1 log2FC (Gene 54820): 0.535
- NSUN2 log2FC (Gene 54888): -0.186
- TTC19 log2FC (Gene 54902): 0.753
- TXNL4B log2FC (Gene 54957): 0.617
- BANP log2FC (Gene 54971): -0.168
- AURKAIP1 log2FC (Gene 54998): -0.353
- PHIP log2FC (Gene 55023): 1.243
- USP47 log2FC (Gene 55031): 0.762
- ZWILCH log2FC (Gene 55055): 0.619
- PIWIL2 log2FC (Gene 55124): -0.029
- CEP192 log2FC (Gene 55125): 0.534
- CDCA8 log2FC (Gene 55143): -0.107
- RFWD3 log2FC (Gene 55159): -0.597
- CEP55 log2FC (Gene 55165): 1.059
- CENPQ log2FC (Gene 55166): 0.796
- RIF1 log2FC (Gene 55183): 0.443
- ARL8B log2FC (Gene 55207): 0.686
- RCBTB1 log2FC (Gene 55213): 0.799
- CCDC87 log2FC (Gene 55231): -0.125
- STEAP3 log2FC (Gene 55240): -0.569
- MNS1 log2FC (Gene 55329): 0.765
- MCM10 log2FC (Gene 55388): -0.683
- SMPD3 log2FC (Gene 55512): -0.280
- TRIM36 log2FC (Gene 55521): 0.705
- RBM38 log2FC (Gene 55544): -0.536
- PRR5 log2FC (Gene 55615): 0.335
- PRPF40A log2FC (Gene 55660): 1.175
- CEP72 log2FC (Gene 55722): 0.344
- CHFR log2FC (Gene 55743): -0.026
- NUP133 log2FC (Gene 55746): 0.409
- CCAR1 log2FC (Gene 55749): 0.836
- CDK5RAP2 log2FC (Gene 55755): 0.516
- PCID2 log2FC (Gene 55795): 0.322
- CENPN log2FC (Gene 55839): 0.469
- PPP2R2D log2FC (Gene 55844): 0.037
- HDAC8 log2FC (Gene 55869): -0.325
- PBK log2FC (Gene 55872): 0.522
- BIN3 log2FC (Gene 55909): -0.746
- ERBB2IP log2FC (Gene 55914): 1.051
- RCC2 log2FC (Gene 55920): -0.248
- KLHL9 log2FC (Gene 55958): 0.133
- TEX11 log2FC (Gene 56159): -0.066
- TDRD1 log2FC (Gene 56165): 0.246
- PARD3 log2FC (Gene 56288): 0.418
- RPRM log2FC (Gene 56475): -0.078
- CYP26B1 log2FC (Gene 56603): 0.090
- SPIRE1 log2FC (Gene 56907): 0.377
- SMARCAD1 log2FC (Gene 56916): 0.653
- PRDM9 log2FC (Gene 56979): 0.085
- KIF15 log2FC (Gene 56992): 1.353
- PDXP log2FC (Gene 57026): -1.027
- PCBP4 log2FC (Gene 57060): -0.519
- CASC5 log2FC (Gene 57082): 0.187
- PCNP log2FC (Gene 57092): 0.687
- NUP107 log2FC (Gene 57122): 0.862
- CHMP1B log2FC (Gene 57132): 0.826
- PAK7 log2FC (Gene 57144): 0.396
- CSRP2BP log2FC (Gene 57325): 0.412
- TTYH1 log2FC (Gene 57348): -0.189
- BIRC6 log2FC (Gene 57448): 0.155
- MTA3 log2FC (Gene 57504): 0.345
- HACE1 log2FC (Gene 57531): 0.593
- TAOK1 log2FC (Gene 57551): 0.386
- USP37 log2FC (Gene 57695): 0.513
- FANCM log2FC (Gene 57697): 0.486
- CCNB1IP1 log2FC (Gene 57820): 1.174
- RHOU log2FC (Gene 58480): 1.289
- OVOL2 log2FC (Gene 58495): -0.133
- AVPI1 log2FC (Gene 60370): 0.391
- RINT1 log2FC (Gene 60561): 0.804
- FAM111A log2FC (Gene 63901): 0.319
- DMRTC2 log2FC (Gene 63946): -0.047
- CLSPN log2FC (Gene 63967): 0.066
- TSPYL2 log2FC (Gene 64061): -0.073
- DPEP3 log2FC (Gene 64180): -0.246
- RFWD2 log2FC (Gene 64326): 0.063
- CENPH log2FC (Gene 64946): 0.860
- MRPL41 log2FC (Gene 64975): -0.545
- INTS3 log2FC (Gene 65123): -0.455
- PHACTR4 log2FC (Gene 65979): 0.399
- BOLL log2FC (Gene 66037): -0.038
- MIS12 log2FC (Gene 79003): -0.429
- CENPM log2FC (Gene 79019): -0.105
- NUP37 log2FC (Gene 79023): 0.431
- ZNF655 log2FC (Gene 79027): 0.893
- CENPO log2FC (Gene 79172): -0.787
- E2F8 log2FC (Gene 79733): 0.114
- FBXO31 log2FC (Gene 79791): -0.232
- CSPP1 log2FC (Gene 79848): 0.754
- NEK11 log2FC (Gene 79858): 0.568
- MAP9 log2FC (Gene 79884): 1.193
- NUP85 log2FC (Gene 79902): 0.292
- CEP76 log2FC (Gene 79959): 0.323
- CENPT log2FC (Gene 80152): -0.175
- DBF4B log2FC (Gene 80174): -0.579
- CEP290 log2FC (Gene 80184): 0.854
- CEP63 log2FC (Gene 80254): 0.741
- CDK5RAP3 log2FC (Gene 80279): -0.091
- CEP70 log2FC (Gene 80321): 0.756
- TUBB1 log2FC (Gene 81027): -0.436
- NDEL1 log2FC (Gene 81565): -0.111
- FAM83D log2FC (Gene 81610): -0.088
- CAB39L log2FC (Gene 81617): 0.106
- CCNL2 log2FC (Gene 81669): 0.230
- CABLES2 log2FC (Gene 81928): -0.937
- KIF18A log2FC (Gene 81930): 1.204
- SESN2 log2FC (Gene 83667): -0.701
- SETDB2 log2FC (Gene 83852): 1.285
- GSG2 log2FC (Gene 83903): -0.491
- RASSF4 log2FC (Gene 83937): 0.185
- MND1 log2FC (Gene 84057): 0.497
- HORMAD1 log2FC (Gene 84072): 0.519
- USP44 log2FC (Gene 84101): -0.061
- CEP78 log2FC (Gene 84131): 0.550
- GINS4 log2FC (Gene 84296): -0.398
- RAB11FIP4 log2FC (Gene 84440): 0.575
- LZTS2 log2FC (Gene 84445): 0.831
- BRSK1 log2FC (Gene 84446): -0.038
- SPIRE2 log2FC (Gene 84501): 0.454
- PARD6B log2FC (Gene 84612): 0.731
- PPP1R9B log2FC (Gene 84687): -0.425
- SPATA22 log2FC (Gene 84690): -0.013
- BEX2 log2FC (Gene 84707): 0.736
- PSRC1 log2FC (Gene 84722): 0.114
- KLHL22 log2FC (Gene 84861): 0.165
- TBRG1 log2FC (Gene 84897): 0.370
- MASTL log2FC (Gene 84930): 0.592
- LSM10 log2FC (Gene 84967): -1.152
- CCNB3 log2FC (Gene 85417): 0.077
- LRRCC1 log2FC (Gene 85444): 0.773
- DIXDC1 log2FC (Gene 85458): 0.062
- PNPT1 log2FC (Gene 87178): 0.445
- LMLN log2FC (Gene 89782): 0.783
- KLHL13 log2FC (Gene 90293): 0.112
- GADD45GIP1 log2FC (Gene 90480): -0.402
- SLFN11 log2FC (Gene 91607): -0.432
- CENPL log2FC (Gene 91687): 0.066
- CABLES1 log2FC (Gene 91768): 1.627
- SYCE1 log2FC (Gene 93426): -0.072
- ACTR8 log2FC (Gene 93973): 0.366
- TP53INP1 log2FC (Gene 94241): 0.920
- CDCA5 log2FC (Gene 113130): 0.030
- TUBGCP5 log2FC (Gene 114791): 0.520
